Laboratory results from US20250346890A1, “LEUKEMIA TREATMENT” (Deutsches Krebsforschungszentrum, priority 2019, published 2025).

Columns and labels:
ID1 = assay: qRT-PCR analysis of ID1 in THP-1 cells; type: cell-based, human; conditions: ATRA treatment
Method: (§1) Cultured cells were lysed in Macherey-Nagel RAI buffer containing 1% β-mercaptoethanol and total RNAs were isolated using NucleoSpin RNA isolation kit (Macherey-Nagel 740955). Reverse transcription and PCR amplification were performed. Primers used in this study are listed in Supplementary Table 1. Graphs show relative gene expressions to GAPDH. […] Statistical analyses were performed using PRISM7 software with unpaired t-test or one-way ANOVA test.

Smad1 = assay: Western blot of pSmad1 and tSmad1 in THP-1 cells; type: cell-based, human; conditions: THP-1 cells
Method: Cultured cells were rinsed with cold PBS and lysed in Triton lysis buffer ([…] Tris-Cl, pH 7.5, 1% Triton X-100, 150 mM NaCl, 1 mM EDTA, 1 mM EGTA, 1 mM β-glycerophosphate, 1 mM Na3 VO4) or RIPA buffer with complete Protease Inhibitor Cocktail (Roche 11697498001). Lysates were mixed with Laemmli buffer with β-mercaptoethanol and boiled at 95° C. for 5 min to prepare SDS-PAGE samples. Western blot images were acquired with SuperSignal West pico ECL (ThermoFisher 34580) or Clarity Western ECL (Biorad 1705061) using LAS-3000 system (FujiFilm). Quantification of blots was done using ImageJ software.
(§2) THP-1 cells were treated with 0.3, 1.0 and 3.0 μg ml^−1 goat polyclonal anti-RSPO2 antibodies (R&D systems AF3266) or goat polyclonal GFP antibodies (ABIN 100085). After 48 hours, medium was replaced including fresh antibodies—and incubated another 24 hours. Western blot analysis and FACS analyses were performed as discussed above.

THP-1 cells = assay: Monocyte-macrophage differentiation of THP-1 cells (FACS / qRT-PCR of CD14, CD11B); type: cell-based, human
Method: as §1
For analyzing macrophage differentiation of THP-1, cells were harvested, pelleted and resuspended in ice-cold blocking buffer (PBS supplemented with 1% BSA and 0.1% NaN3). Cells were treated with Fc Receptor Binding Inhibitor as recommended by the manufacturer (eBioscience 14916173) and stained directly with FITC/APC-conjugated antibodies diluted in blocking buffer or with non-conjugated primary antibodies followed by fluorochrome-labeled secondary antibodies. Isotype-matched antibodies were used as controls. Dead cells were excluded by counterstaining with propidium iodide. For analyzing apoptosis of THP-1, cells were fixed in 4% PFA, permeabilized by MeOH and blocked with PBS supplemented with 1% BSA and 0.1% Tween-20. Cells were stained with anti-active Caspase-3 antibody and fluorochrome-labeled secondary antibody. FACS Samples were analyzed with FACSCalibur or FACSCanto (BD Biosciences). 10,000 events per samples were acquired, and results were processed with Cell Quest or FACSDiva software (BD Biosciences). For BMP4 stimulation, cells were treated with 5 and 25 ng ml^−1 recombinant human BMP4 protein (R&D systems 314-BP). 100, 300 and 1000 nM LDN […] (Tocris 6053) were used for rescue assay. For the THP-1 cell number quantification and differentiation validation in vivo, bone marrow cells were harvested from tibias of NSG mice and red blood cells were removed by ACK Lysing Buffer (Gibco A1049201). Cells were stained and analyzed as above. Here, 50,000 PI-negative events per samples were acquired.
as §2
The sequences of shRSPO2 and shControl (Table 1) were synthesized, inserted into the transfer plasmid Tet-pLKO-puro (Addgene 21915) and validated by sequencing. Lentivirus was produced with the 3rd generation lentiviral system according to the protocol available at the Trono lab as described (www.epfl.ch/labs/tronolab/). THP-1 cells were infected with lentivirus with 8 μg ml^−1 Polybrene (Sigma TR-1003) and selected with 0.5 μg ml^−1 puromycin (Calbiochem 540411). Single cell clones were obtained by limiting dilutions. The shRNA expression of clones was validated by monitoring RSPO2 expression after doxycycline treatment (1.0 μg ml^−1) for 3 days.

AML cells = assay: Cytarabine (AraC) treatment of THP-1 TetOn-shRNA clones; type: cell-based; conditions: Dox and AraC treatment

Row | Compound | ID1 expression (ID1) | Smad1-phosphorylation (Smad1) | macrophage differentiation, combination with Dox-induced shRSPO2 (THP-1 cells; THP-1 TetOn-shRSPO2 clones, Dox+ATRA) | CD11B expression (THP-1 cells; THP-1 cells, ATRA treatment) | sensitivity of AML cells to cytarabine upon loss of RSPO2 (AML cells)
1 | CC1=C(/C=C/C(C)=C/C=C/C(C)=C/C(=O)O)C(C)(C)CCC1 [ATRA, (2E,4E,6E,8E)-3,7-dimethyl-9-(2,6,6-trimethylcyclohexen-1-yl) nona-2,4,6,8-tetraenoic acid] | induced | induced Smad1-phosphorylation | cooperated in inducing macrophage differentiation | induced | –
2 | Nc1ccn([C@@H]2O[C@H](CO)[C@@H](O)[C@@H]2O)c(=O)n1 [cytarabine] | – | – | – | – | sensitize
